Measured values from patent publication US4657918A, “3-[6-[3-pyrrolidino-1-(4-tolyl)prop-1e-enyl]-2-pyridyl]propionic acid and derivatives having anti-histaminic activity” (priority 1982, dated 1987).

Tests used:
H1 histamine receptor = molecular target: T1, H1 histamine receptor (Cavia porcellus, UniProt P31389); assay: In vitro antihistaminic activity, isolated guinea-pig ileum longitudinal muscle, histamine concentration-response shift (Schild plot); type: cell-based; conditions: negative log of the molar concentration of antagonist which shifts the histamine concentration-response curve 2X to the right, 1 h incubation, read-out: pA2 (converted)
T1 construct: The longitudinal muscle was isolated from the intact ileum of guinea-pigs; from tissue; host or cells: guinea-pig ileum, longitudinal muscle (Hartly, male 250-400 g)
Method: In vitro antihistiminic activity: The longitudinal muscle was isolated from the intact ileum of guinea-pigs (Hartly, male 250-400 g) and placed in an organ bath under 300 mg tension. After one hour of equilibration, cumulative concentration-response curves (Van Rossum, J. M., Arch. Int. Pharmacodyn. Ther. 143, 299-330, 1963) to histamine were obtained. Following washing, the tissues were incubated for one hour with the test compound and then a second histamine concentration-response curve was run. Shifts to the right of the agonist concentration-response curve produced by the antagonists were used to construct Schild plots (Arunlakshana, O. and Schild, H. O., Br. J. Pharmacol: 14, 48-58, 1959). Regression of Log (dr-1) on Log [B], where dr is an equiactive response in the presence and absence of antagonist and [B] is the molar concentration of antagonist, allowed an estimate of pA2, i.e. the negative log of the concentration of antagonist which shifts the control histamine concentration-response curve 2X to the right.

[1] = background statement; cited from earlier work
[2] = antihistamines now in use; some patients; cited from earlier work

T1 sequence (P31389 whole entry): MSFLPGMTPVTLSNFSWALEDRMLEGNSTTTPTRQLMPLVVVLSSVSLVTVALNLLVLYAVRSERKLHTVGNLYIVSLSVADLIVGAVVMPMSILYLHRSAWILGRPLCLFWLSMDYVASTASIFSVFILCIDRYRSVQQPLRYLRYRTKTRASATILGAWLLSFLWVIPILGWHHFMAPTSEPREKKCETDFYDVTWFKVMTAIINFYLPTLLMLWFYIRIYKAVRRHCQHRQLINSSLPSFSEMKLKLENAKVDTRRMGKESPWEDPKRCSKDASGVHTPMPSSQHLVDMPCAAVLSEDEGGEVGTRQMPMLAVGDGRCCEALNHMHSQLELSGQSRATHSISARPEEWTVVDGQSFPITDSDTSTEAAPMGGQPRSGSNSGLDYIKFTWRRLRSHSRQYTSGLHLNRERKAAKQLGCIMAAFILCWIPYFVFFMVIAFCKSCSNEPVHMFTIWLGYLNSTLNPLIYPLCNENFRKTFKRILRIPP

Row | Kb (H1 histamine receptor) | SMILES | also measured
1 | 1.26 nM | COc1ccc(/C(=C\CN2CCCC2)c2cccc(/C=C/C(=O)O)n2)cc1 [C, (E)-3-{6-[3-pyrrolidino-1-(4-methoxyphenyl)prop-1E-enyl]-2-pyridyl}acrylicacid] | –
2 | 0.631 nM | Cc1ccc(/C(=C\CN2CCCC2)c2cccc(CCC(=O)O)n2)cc1 [Compound A, 3-{6-[3-Pyrrolidino-1-(4-tolyl)prop-1E-enyl]-2-pyridyl}propionic acid] | –
3 | 6.31 nM | Cc1ccc(/C(=C\CN(C)C)c2cccc(/C=C/C(=O)O)n2)cc1 [Compound B, (E)-3-{6-[3-Dimethylamino-1-(4-tolyl)prop-1E-enyl]-2-pyridyl}acrylic acid] | –
4 | 1 nM | O=C(O)/C=C/c1cccc(/C(=C/CN2CCCC2)c2ccc(Cl)cc2)n1 [D, (E)-3-{6-[1-(4-chlorophenyl)-3-pyrrolidinoprop-1E-enyl]-2-pyridyl}acrylicacid] | –
5 | 39.8 nM | O=C(O)/C=C/c1cccc(/C(=C/CN2CCCC2)c2ccccc2)n1 [E, (E)-3-[6-(1-phenyl-3-pyrrolidinoprop-1E-enyl)-2-pyridyl]acrylic acid] | –
6 | 1.26 nM | Cc1ccc(/C(=C\CN2CCCC2)c2cccc(C(=O)O)n2)cc1 [F, 6-[3-pyrrolidino-1-(4-tolyl)prop-1E-enyl]pyridine-2-carboxylic acid] | –
7 | – | Cc1ccc(/C(=C\CN2CCCC2)c2ccccn2)cc1 [Triprolidine, (E)-1-(4-methylphenyl)-1-(2-pyridyl)-3-pyrrolidinoprop-1-ene] | antihistamine potency [1]: one of the most potent antihistamines available
8 | – | CC(CN1c2ccccc2Sc2ccccc21)N(C)C (centres unmarked) [promethazine] | sedation or drowsiness [2]: may cause sedation or drowsiness in some patients
